Results published in article PMC9516332 (Frontiers in Oncology, 2022).
Where two headings read alike, the source gives them in different places.

Test system: 134 cancer cell lines
Experiment: Cell viability assay (ATPlite, 72 hours), IC50 on cancer cell line panel

Cn1cnc2c(F)c(Nc3ccc(Br)cc3F)c(C(=O)NOCCO)cc21 [binimetinib]
IC50 (HEC-6, read-out: IC50 in cell proliferation assay, HEC-6 cell line (EGFR p.A289V)): > 31600 nM | IC50 (Homo sapiens, 769-P, read-out: IC50 in cell proliferation assay, cell line 769-P): 229 nM | IC50 (Homo sapiens, 786-0, read-out: IC50 in cell proliferation assay, cell line 786-O): > 31600 nM | IC50 (Homo sapiens, A 172, read-out: IC50 in cell proliferation assay, cell line A-172): 20000 nM | IC50 (Homo sapiens, A204, read-out: IC50 in cell proliferation assay, cell line A-204): > 31600 nM | IC50 (Homo sapiens, A498, read-out: IC50 in cell proliferation assay, cell line A-498): 53 nM | IC50 (Homo sapiens, A549, read-out: IC50 in cell proliferation assay, cell line A-549): 92 nM | IC50 (Homo sapiens, A704, read-out: IC50 in cell proliferation assay, cell line A-704): > 31600 nM | IC50 (Homo sapiens, A-375, read-out: IC50 in cell proliferation assay, cell line A-375 (BRAF p.V600E)): 86 nM | IC50 (Homo sapiens, A-427, read-out: IC50 in cell proliferation assay, cell line A-427): 625 nM | IC50 (Homo sapiens, ACHN, read-out: IC50 in cell proliferation assay, cell line ACHN): 32 nM | IC50 (Homo sapiens, AN3-CA, read-out: IC50 in cell proliferation assay, cell line AN3-CA (FGFR2 p.N549K)): 12800 nM | IC50 (Homo sapiens, ASPC1, read-out: IC50 in cell proliferation assay, cell line AsPC-1): 116 nM | IC50 (Homo sapiens, AU565, read-out: IC50 in cell proliferation assay, cell line AU565 (ERBB2 amplification)): > 31600 nM | IC50 (Homo sapiens, BT-20, read-out: IC50 in cell proliferation assay, cell line BT-20): > 31600 nM | IC50 (Homo sapiens, BT-474, read-out: IC50 in cell proliferation assay, cell line BT-474 (ERBB2 amplification)): > 31600 nM | IC50 (Homo sapiens, BT-549, read-out: IC50 in cell proliferation assay, cell line BT-549): 8680 nM | IC50 (Homo sapiens, BXPC-3, read-out: IC50 in cell proliferation assay, cell line BxPC-3): 24 nM | IC50 (Homo sapiens, C-33-A, read-out: IC50 in cell proliferation assay, cell line C-33 A): 72 nM | IC50 (Homo sapiens, CAL-27, read-out: IC50 in cell proliferation assay, cell line CAL-27): 117 nM | IC50 (Homo sapiens, CCF-STTG1, read-out: IC50 in cell proliferation assay, cell line CCF-STTG1): > 31600 nM | IC50 (Homo sapiens, CCRF-CEM, read-out: IC50 in cell proliferation assay, cell line CCRF-CEM): > 31600 nM | IC50 (Homo sapiens, COLO 205, read-out: IC50 in cell proliferation assay, cell line COLO 205 (BRAF p.V600E)): 31 nM | IC50 (Homo sapiens, COLO-829, read-out: IC50 in cell proliferation assay, cell line COLO 829 (BRAF p.V600E)): 125 nM | IC50 (Homo sapiens, DLD-1, read-out: IC50 in cell proliferation assay, cell line DLD-1): 522 nM | IC50 (Homo sapiens, DU-4475, read-out: IC50 in cell proliferation assay, cell line DU4475 (BRAF p.V600E)): 38 nM | IC50 (Homo sapiens, Daoy, read-out: IC50 in cell proliferation assay, cell line Daoy): 3980 nM | IC50 (Homo sapiens, DoTc2-4510, read-out: IC50 in cell proliferation assay, cell line DoTc2 4510): 113 nM | IC50 (Homo sapiens, EOL1, read-out: IC50 in cell proliferation assay, cell line EoL-1 (FIP1L1-PDGFRA)): 82 nM | IC50 (Homo sapiens, FaDu, read-out: IC50 in cell proliferation assay, cell line FaDu): 47 nM | IC50 (Homo sapiens, G-361, read-out: IC50 in cell proliferation assay, cell line G-361 (BRAF p.V600E)): 144 nM | IC50 (Homo sapiens, HCC827, read-out: IC50 in cell proliferation assay, cell line HCC827 (EGFR exon19del)): 268 nM | IC50 (Homo sapiens, HCC4006, read-out: IC50 in cell proliferation assay, cell line HCC4006 (EGFR exon19del)): 26600 nM | IC50 (Homo sapiens, HCT-15, read-out: IC50 in cell proliferation assay, cell line HCT 15): 1070 nM | IC50 (Homo sapiens, HCT-116, read-out: IC50 in cell proliferation assay, cell line HCT 116): 525 nM | IC50 (Homo sapiens, HEC-1, read-out: IC50 in cell proliferation assay, HEC-1 cell line): > 31600 nM | IC50 (Homo sapiens, HEC-1B, read-out: IC50 in cell proliferation assay, HEC-1-B cell line (EGFR p.A864V)): 12 nM | IC50 (Homo sapiens, HL-60, read-out: IC50 in cell proliferation assay, HL-60 cell line): 5 nM | IC50 (Homo sapiens, HT, read-out: IC50 in cell proliferation assay, HT cell line): > 31600 nM | IC50 (Homo sapiens, HT-1080, read-out: IC50 in cell proliferation assay, HT-1080 cell line): 27 nM | IC50 (Homo sapiens, Hs746T, read-out: IC50 in cell proliferation assay, Hs 746.T cell line (MET exon14skip + amplification)): 12500 nM | IC50 (Homo sapiens, Hs-578T, read-out: IC50 in cell proliferation assay, Hs 578T cell line): 143 nM | IC50 (Homo sapiens, HuTu80, read-out: IC50 in cell proliferation assay, HuTu 80 cell line): 3320 nM | IC50 (Homo sapiens, J82, read-out: IC50 in cell proliferation assay, J82 cell line): 200 nM | IC50 (Homo sapiens, Jurkat E6.1, read-out: IC50 in cell proliferation assay, Jurkat E6.1 cell line): > 31600 nM | IC50 (Homo sapiens, K562, read-out: IC50 in cell proliferation assay, K-562 cell line): 383 nM | IC50 (Homo sapiens, KATO III, read-out: IC50 in cell proliferation assay, KATO III cell line (FGFR2 amplification)): 5400 nM | IC50 (Homo sapiens, KG-1, read-out: IC50 in cell proliferation assay, KG-1 cell line (FGFR1OP2-FGFR1)): 404 nM | IC50 (Homo sapiens, KLE, read-out: IC50 in cell proliferation assay, KLE cell line): > 31600 nM | IC50 (Homo sapiens, KMS-11, read-out: IC50 in cell proliferation assay, KMS-11 cell line (FGFR3 p.Y373C)): > 31600 nM | IC50 (Homo sapiens, KU812, read-out: IC50 in cell proliferation assay, Ku812 cell line): 30 nM | IC50 (Homo sapiens, Kasumi 1, read-out: IC50 in cell proliferation assay, Kasumi-1 cell line (KIT p.N822K)): 192 nM | IC50 (Homo sapiens, LC-2-ad, read-out: IC50 in cell proliferation assay, LC-2/ad cell line (CCDC6-RET)): 84 nM | IC50 (Homo sapiens, LNCaP-Clone-FGC, read-out: IC50 in cell proliferation assay, LNCaP clone FGC cell line): > 31600 nM | IC50 (Homo sapiens, LS174T, read-out: IC50 in cell proliferation assay, LS174T cell line): 70 nM | IC50 (Homo sapiens, LS-411N, read-out: IC50 in cell proliferation assay, LS411N cell line (BRAF p.V600E)): 61 nM | IC50 (Homo sapiens, LoVo, read-out: IC50 in cell proliferation assay, LoVo cell line): 23 nM | IC50 (Homo sapiens, MCF7, read-out: IC50 in cell proliferation assay, MCF-7 cell line): > 31600 nM | IC50 (Homo sapiens, MDA-MB-231, read-out: IC50 in cell proliferation assay, MDA-MB-231 cell line): 1010 nM | IC50 (Homo sapiens, MDA-MB-453, read-out: IC50 in cell proliferation assay, MDA-MB-453 cell line): > 31600 nM | IC50 (Homo sapiens, MDA-MB-468, read-out: IC50 in cell proliferation assay, MDA-MB-468 cell line): 64 nM | IC50 (Homo sapiens, MG-63, read-out: IC50 in cell proliferation assay, MG-63 cell line): 2220 nM | IC50 (Homo sapiens, MIA PaCa-2, read-out: IC50 in cell proliferation assay, MIA PaCa-2 cell line): 140 nM | IC50 (Homo sapiens, MKN-45, read-out: IC50 in cell proliferation assay, MKN45 cell line (MET amplification)): 1150 nM | IC50 (Homo sapiens, MOLM-13, read-out: IC50 in cell proliferation assay, MOLM-13 cell line (FLT3 ITD)): 1030 nM | IC50 (Homo sapiens, MOLT-4, read-out: IC50 in cell proliferation assay, MOLT-4 cell line): > 31600 nM
